Results from ChEMBL document CHEMBL1240378, “Pharmacokinetic-pharmacodynamic modeling of alpha interferon response induced by a Toll-like 7 receptor agonist in mice” (Antimicrob Agents Chemother, 2010).

Columns and labels:
Hepatitis C virus = experiment: Antiviral activity against HCV infected in human Huh7 cells with persistent PFK1389-Luc-Ubi-Neo-NS3-3'/ET replicon after 48 hrs by luminescence based assay; format: functional, organism-based, Hepacivirus hominis; details: Huh-7, 48 h
Mus musculus [1] = experiment: Induction of IFNalpha production in CD1 mouse assessed as maximum rate of interferon alpha synthesis at 0.1 to 10 mg/kg, po; format: functional; details: dose mg/kg 0.1-10
Mus musculus [2] = experiment: Intercompartmental clearance in CD1 mouse at 0.1 to 10 mg/kg, po; format: ADME, organism-based; design: dose 0.1-10 mg/kg, route oral; details: in vivo
[3] = Clearance in CD1 mouse at 0.1 to 10 mg/kg, po; format: ADME, organism-based; design: dose 0.1-10 mg/kg, route oral; details: in vivo
[4] = Oral bioavailability in rat at 3 mg/kg; format: ADME, organism-based; details: in vivo
Mus musculus [5] = experiment: Absorption rate constant for depot compartment in CD1 mouse at 0.1 to 10 mg/kg, po; format: ADME, organism-based; design: dose 0.1-10 mg/kg, route oral; details: in vivo
Mus musculus [6] = experiment: Induction of IFNalpha production in CD1 mouse assessed as concentration of compound required for half-maximal synthesis of INF-alpha at 0.1 to 10 mg/kg, po; format: functional; details: dose mg/kg 0.1-10
Mus musculus [7] = experiment: Volume of distribution in central compartment in CD1 mouse at 0.1 to 10 mg/kg, po; format: ADME, organism-based; design: dose 0.1-10 mg/kg, route oral; details: in vivo
Mus musculus [8] = experiment: Induction of IFNalpha production in CD1 mouse assessed as elimination rate constant for interferon alpha at 0.1 to 10 mg/kg, po; format: functional; details: dose mg/kg 0.1-10
Mus musculus [9] = experiment: Apparent volume of distribution in CD1 mouse at 0.1 to 10 mg/kg, po; format: ADME, organism-based; design: dose 0.1-10 mg/kg, route oral; details: in vivo

`COCCOc1nc(N)c2[nH]c(=O)n(Cc3ccccc3)c2n1` showed an EC50 (Hepatitis C virus) of 30 nM, an Smax (Mus musculus [1]) of 294 IU/ml/hr and a CL (Mus musculus [2]) of 46.3 mL/min/kg. It also gave a CL/F [3] of 57.5 mL/min/kg, a bioavailability [4] of 40% and a Ka (Mus musculus [5]) of 35 h⁻¹. For the same compound, the SC50 (Mus musculus [6]) was 135 ng/mL, the Vd (Mus musculus [7]) was 4.31 L/kg and the Activity (Mus musculus [8]) was 0.958 h⁻¹. The Vz (Mus musculus [9]) was 40 L/kg.
